Assays:
U-87MG cells = assay: In vitro cellular uptake and inhibition assay of ^211At-PA; format: cell-based; conditions: Homo sapiens, 20 mM BCH added 5 min before para-^211At-PA, compared to baseline, read-out: inhibition of ^211At-PA uptake by addition of BCH
Experimental: (§1) The C6 rat glioma cell line was provided by RIKEN BRC (Tsukuba, Japan) and cultured in F-12K medium (Gibco, Grand Island, NY, USA) containing 10% fetal bovine serum (FBS; Sigma-Aldrich). The U-87 MG human glioblastoma cell line was purchased from American Type Culture Collection (Manassas, VA, USA) and cultured in Modified Eagle’s medium (MEM; Sigma-Aldrich, St. Louis, MO, USA) containing 1% Non Essential Amino Acids (NEAA) + 1 mM Sodium Pyruvate (NaP) and 10% FBS. The GL261 murine glioma cell line was provided by the In Vivo Cellular and Molecular Imaging Lab at Vrije Universiteit, Brussels and cultured in high-glucose Dulbecco’s MEM (DMEM; Wako Pure Chemical, Osaka, Japan) containing 10% FBS. All cells were maintained at 37°C in a humidified incubator containing 5% CO2 and were washed with phosphate-buffered saline (PBS) and harvested with trypsin as necessary. LAT1 expression of these cells were confirmed in previous studies.
(§2) Initially, the cells were seeded onto a 24-well plate (density: 1 × 10^5/well) and cultured for 2 days. […] Counts per minute (CPM) of the samples were measured by gamma counter. The protein concentrations were measured using the BCA protein assay kit (FUJIFILM Wako Pure Chemical) and a plate reader (Multiskan FC, ThermoFisher Scientific, USA). […]

C6 glioma cells = assay: as above; format: cell-based; conditions: Rattus norvegicus, 20 mM BCH added 5 min before para-^211At-PA, compared to baseline, read-out: inhibition of ^211At-PA uptake by addition of BCH
Experimental: as §1, §2

GL261 cells = assay: as above; format: cell-based, murine; conditions: Mus musculus, 20 mM BCH added 5 min before para-^211At-PA, compared to baseline, read-out: inhibition of ^211At-PA uptake by addition of BCH
Experimental: as §1, §2

thyroid gland = conditions: ^211At-astatide deastatinated from ^211At-PA; cited from earlier work
[1] = Stability of the radiolabeled products in vials; format: physicochemical; conditions: for 24 hr
Experimental: Ascorbic acid, para-borono-L-phenylalanine (para-BPA), meta-borono-D, L-phenylalanine (meta-BPA), N-bromosuccinimide (NBS), and an injectable solution of 7% sodium hydrogen carbonate (7% NaHCO3) were purchased from Nacalai Tesque (Kyoto, Japan). For the experiments, 1 mg of para-BPA (or meta-BPA) was dissolved in 0.1 mL of 7% NaHCO3. Next, 0.1 mL of the 1% (w/v) para-BPA (or meta-BPA) solution and an aliquot of ^211At aqueous solution (10–20 MBq) were poured into a glass vial, stirred, and mixed with 30 μL of an aqueous solution of 0.4% (w/v) NBS for 30 min at room temperature. Finally, 30 μL of an aqueous solution of 3% (w/v) ascorbic acid was added to the mixture to stop the oxidation reaction, and the mixture was purified using solid-phase extraction. The purified para-^211At-PA or meta-^211At-PA was then analyzed using a high-performance liquid chromatography system (Shimazdu, Kyoto) equipped with a reverse-phase Cosmosil column (5C18 MS2, 150 mm × 4.6 mm; Nacalai Tesque). The products were eluted using a gradient solvent system (0–100% acetonitrile in water) for 20 min and then measured using a gamma-ray detector (GABI star, Elysia-raytest, Germany) and a UV detector at 254 nm.

[2] = Biodistribution and iodine blocking effect in normal ICR mice; format: in vivo, mouse; conditions: for residence time in major organs (meta- versus para-): intravenous
Experimental: For the biodistribution study, para- or meta-^211At-PA (0.53 ± 0.04 MBq) was injected into normal male ICR mice (n = 18, 9 weeks old, body weight = 37.7 ± 1.3 g). The mice were sacrificed by euthanasia at 1, 3, and 24 hr post-injection. For the iodine blocking study, normal male ICR mice (n = 6, 9 weeks old, body weight = 37.9 ± 0.9 g) were fed with 2-week iodine-restricted diet. […] The mice were euthanized 3 hr post-administration of para-^211At-PA (0.5 MBq) and dissected.
The major organs (brain, thyroid gland, salivary gland, heart, lung, esophagus, liver, stomach, small intestine, large intestine, kidney, adrenal gland, pancreas, spleen, and testes) and the blood were collected from each mouse, and the radioactivity and weight of each sample were measured using an AccuFlex γ7000 device (Hitachi, Aloka, Japan). Radioactivity counts were normalized by calibration with a standard solution of ^211At. The residence time (hr) was calculated using the trapezoidal method without decay correction.

C6 glioma xenograft [3] = assay: Treatment effect in C6 glioma xenograft mice; format: in vivo, mouse; conditions: for tumor size ratio (relative to the control): 3 weeks post-injection
Experimental: (§3) All animal experiments were performed in compliance with the guidelines of the Institute of Experimental Animal Sciences. The protocol was approved by the Animal Care and Use Committee of the Osaka University Graduate School of Medicine. Normal ICR, normal C57BL/6, and nude mice (male) were purchased from Japan SLC Inc. (Hamamatsu, Japan). All animals were housed under a 12-h light/12-hr dark cycle, and given free access to food and water. C6 glioma cells (5.0 × 10^6 cells) or GL-261 cells (1.0 × 10^7 cells) were suspended in 100 μL of culture medium and Matrigel (1:1 ratio; BD Biosciences, Franklin Lakes, NJ, USA). Tumor xenograft and allograft models were prepared via the subcutaneous injection of this C6 glioma cell suspension into each immunodeficient nude mouse (n = 12) and the GL-261 cell suspension into each immunocompetent C57BL/6 mouse (n = 12), respectively.
Para-^211At-PA was injected into mice bearing C6 glioma xenografts (n = 9; 15 weeks old; body weight = 23.8 ± 1.2 g) and GL261 allografts (n = 7; 8 weeks old; body weight = 23.6 ± 1.2 g) at 23 and 20–21 days after implantation, respectively. C6 glioma xenograft mice were divided into four groups according to the injected dose: 1 MBq (n = 3, 1.19 ± 0.05 MBq), 0.5 MBq (n = 3, 0.55 ± 0.02 MBq), 0.1 MBq (n = 3, 0.09 ± 0.03 MBq), and control mice without para-^211At-PA administration (n = 3). GL261 allograft mice were divided into two groups: 1 MBq (n = 7, 1.07 ± 0.07 MBq) and control (n = 5). Planar imaging was performed using a gamma camera system (E-cam, Siemens) at 30 min and 3 hr after para-^211At-PA administration. This system targeted the X-rays emitted from the daughter nuclide, ^211Po (energy window: 79 keV ± 20%) (6). Image analysis was performed using AMIDE software (ver. 1.0.4). The tumor uptake was calculated as the percent injected dose (%ID). The absorbed dose (Gy) in the tumor was estimated according to a previous report with the normalization to the tumor volume in the calculation process. The tumor sizes (mm^3) were monitored using a caliper, calculated using the following elliptical sphere model equation, and compared between the injected and control groups of mice.
V = 4/3*π*a^2*b (V: volume of the tumor (mm^3), a: shorter radius (mm) and b: longer radius (mm))

GL261 allograft = assay: Treatment effect in GL261 allograft mice; format: in vivo, mouse
Experimental: as §3
Para-^211At-PA was injected into mice bearing C6 glioma xenografts (n = 9; 15 weeks old; body weight = 23.8 ± 1.2 g) and GL261 allografts (n = 7; 8 weeks old; body weight = 23.6 ± 1.2 g) at 23 and 20–21 days after implantation, respectively. […] The tumor uptake was calculated as the percent injected dose (%ID). […] The tumor sizes (mm^3) were monitored using a caliper, calculated using the following elliptical sphere model equation, and compared between the injected and control groups of mice. […]

[4] = target: T1, L-type amino acid transporter-1 (LAT1) (Homo sapiens, UniProt Q01650); assay: Transport of para-^211At-PA into Xenopus oocytes expressing LAT1 (compared with LAT2); format: cell-based; conditions: Xenopus oocytes co-expressing 4F2hc; choline buffer; 5, 15, 45 min
T1 construct: expressed in transfected cells; host or cells: defolliculated Xenopus oocytes injected with polyadenylated cRNA (25 ng/oocyte)
T1 sequence (Q01650 whole entry): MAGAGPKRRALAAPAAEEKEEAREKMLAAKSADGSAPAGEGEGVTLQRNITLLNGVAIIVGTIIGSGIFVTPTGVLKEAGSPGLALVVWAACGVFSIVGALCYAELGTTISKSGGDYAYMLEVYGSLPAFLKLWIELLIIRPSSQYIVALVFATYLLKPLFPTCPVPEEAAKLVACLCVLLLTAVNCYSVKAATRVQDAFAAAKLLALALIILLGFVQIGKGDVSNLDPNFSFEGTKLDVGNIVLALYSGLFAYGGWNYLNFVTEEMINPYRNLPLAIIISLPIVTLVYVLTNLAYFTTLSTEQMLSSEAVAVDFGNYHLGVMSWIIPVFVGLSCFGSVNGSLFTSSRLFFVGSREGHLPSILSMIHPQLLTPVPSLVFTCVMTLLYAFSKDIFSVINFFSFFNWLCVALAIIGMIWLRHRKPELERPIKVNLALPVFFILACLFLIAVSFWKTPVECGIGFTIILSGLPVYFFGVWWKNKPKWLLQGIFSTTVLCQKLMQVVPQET
T1 sequence (P08195 102-630 partner): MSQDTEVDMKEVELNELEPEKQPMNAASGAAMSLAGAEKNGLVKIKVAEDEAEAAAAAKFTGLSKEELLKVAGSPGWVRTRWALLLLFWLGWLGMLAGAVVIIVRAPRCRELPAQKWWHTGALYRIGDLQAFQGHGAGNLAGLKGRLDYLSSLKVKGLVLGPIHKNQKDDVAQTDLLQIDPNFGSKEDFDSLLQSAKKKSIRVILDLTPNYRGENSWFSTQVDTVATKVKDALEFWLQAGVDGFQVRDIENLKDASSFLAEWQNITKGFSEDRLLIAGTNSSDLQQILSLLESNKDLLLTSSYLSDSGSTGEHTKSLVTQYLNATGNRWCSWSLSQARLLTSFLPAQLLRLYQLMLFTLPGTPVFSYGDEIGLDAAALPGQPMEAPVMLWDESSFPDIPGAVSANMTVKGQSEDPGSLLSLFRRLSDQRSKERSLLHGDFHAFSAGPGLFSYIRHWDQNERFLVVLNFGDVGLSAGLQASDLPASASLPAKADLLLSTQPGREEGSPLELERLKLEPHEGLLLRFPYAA
Experimental: Supplementary Figure 1 lists the cDNAs of human transporters used in this study. First, cRNAs were synthesized in vitro from linearized plasmids using the mMessage mMachine Kit, polyadenylated with a Poly (A) Tailing Kit, and purified with a MEGAclear Kit (all kits: ThermoFisher Scientific, Waltham, MA, USA) according to the manufacturer’s protocols. Next, defolliculated Xenopus oocytes were injected with polyadenylated cRNA (25 ng/oocyte) to induce expression. An equimolar amount of 4F2hc cRNA was co-injected to ensure the functional expression of LAT1 and LAT2 [24–26].
Amino acid transport was measured in the oocytes 2–4 days after cRNA injection, as previously described. Briefly, the oocytes were incubated at room temperature with 500 μL of uptake buffer (choline uptake solution: 100 mM (CH3)3N (Cl) CH2CH2OH, 2 mM KCl, 1.8 mM CaCl2.2H2O, 1 mM MgCl2, 5 mM HEPES, pH 7.5) containing ^211At-PA (approximately 10kBq/oocyte). Radioactivity was determined using a gamma counter. Nine to 11 oocytes were used for each transport measurement. Two separate experiments were performed using different batches of oocytes to confirm the reproducibility of the results.

C6 glioma xenograft [5] = assay: Planar imaging and tumor dosimetry in C6 glioma-bearing mice; format: in vivo, mouse
Experimental: as §3
Para-^211At-PA was injected into mice bearing C6 glioma xenografts (n = 9; 15 weeks old; body weight = 23.8 ± 1.2 g) and GL261 allografts (n = 7; 8 weeks old; body weight = 23.6 ± 1.2 g) at 23 and 20–21 days after implantation, respectively. […] The tumor uptake was calculated as the percent injected dose (%ID). […] The tumor sizes (mm^3) were monitored using a caliper, calculated using the following elliptical sphere model equation, and compared between the injected and control groups of mice.

[6] = tested on: intracranial glioblastomas; set-up: method as in PMID 24036694; conditions: intravenous treatment; rats with intracranial glioblastomas; cited from earlier work
glioblastoma = tested on: glioblastoma; set-up: method as in PMID 19269895; conditions: patients with glioblastoma after temozolomide therapy; cited from earlier work
[7] = NaI 10 mg/kg i.v. 24 and 3 hr before, 3 hr post-administration

## NC1(C(=O)O)CC2CCC1C2 (stereo not drawn) [BCH, 2-aminobicyclo-(2,2,1)-heptane-2-carboxylic acid]
U-87MG cells
  inhibition at 20000 µM: 27.6 ± 1.1%
C6 glioma cells
  inhibition at 20000 µM: 12.2 ± 0.8%
GL261 cells
  inhibition at 20000 µM: 12.6 ± 2%

## [211AtH] [^211At-astatide]
Thyroid gland
  reduction of thyroid uptake following pre-administration of iodine: 80%

## N[C@@H](Cc1cccc([211At])c1)C(=O)O [meta-^211At-PA]
[1]
  stability in vials: remained stable
[2]
  residence time in major organs (meta- versus para-): comparable results

## N[C@@H](Cc1ccc([211At])cc1)C(=O)O [para-^211At-PA, ^211At-para-astato-L-PA]
[1]
  stability in vials: remained stable
C6 glioma xenograft [3]; 0.1 MBq
  tumor size ratio (relative to the control): 0.60
C6 glioma xenograft [3]; 0.5 MBq
  tumor size ratio (relative to the control): 0.40
C6 glioma xenograft [3]; 1 MBq
  tumor size ratio (relative to the control): 0.25
C6 glioma xenograft [3]; C6 glioma xenograft model
  changes in body weights versus control mice: No significant differences
[2]; [7]
  accumulation in the heart and spleen with iodine blocking: increased accumulation
  decrease in accumulation in the thyroid by iodine blocking: 81%
[2]
  residence time in major organs (meta- versus para-): comparable results
GL261 allograft; 1 MBq, day 32
  relative tumor size: 0.24
GL261 allograft; GL261 allograft model
  changes in body weights versus control mice: No significant differences
[4]
  transport into oocytes by LAT1 compared with LAT2: Significantly greater transport
C6 glioma xenograft [5]; 30 min post-injection
  tumor uptake (planar imaging): 3.7 ± 0.8 %ID
C6 glioma xenograft [5]; 3 hr post-injection
  tumor uptake (planar imaging): 1.5 ± 0.2 %ID
[6]
  health conditions and survival durations: improved the health conditions and enhanced the survival durations

## Cn1nnc2c(C(N)=O)ncn2c1=O [temozolomide]
glioblastoma
  5-year overall survival rate: 9.8%

— publication PMC7170498, “Targeted alpha therapy using astatine (^211At)-labeled phenylalanine: A preclinical study in glioma bearing mice” (Oncotarget, 2020)
